According to ChEMBL document CHEMBL3351478 (Eur J Med Chem, 2014):
Activity calls are given as the source filed them. No cut-off for these calls is given here.

Assays:
THP-1 [1] = experiment: Induction of nitric oxide production in human THP1 cells infected with Leishmania donovani amastigotes at 32.3 uM incubated for 48 hrs by Griess assay relative to untreated control; assay type: functional, cell-based
THP-1 [2] = experiment: (§1) Selectivity index, ratio of CC50 for human THP1 cells to IC50 for Leishmania donovani amastigotes infected in human THP1 cells; assay type: functional
Leishmania donovani [3] = experiment: Antileishmanial activity against Leishmania donovani; assay type: functional, organism-based
[4] = Cytotoxicity against human THP1 cells incubated for 92 hrs by MTT assay; assay type: cell-based; conditions: THP-1 cells
Leishmania donovani [5] = experiment: Antileishmanial activity against Leishmania donovani AG83 promastigotes assessed as parasite growth inhibition incubated for 92 hrs by MTT assay; assay type: functional, organism-based; conditions: AG83, 92 h
THP-1 [6] = experiment: Induction of iNOS2 mRNA expression in human THP1 cells infected with Leishmania donovani amastigotes at 0.93 uM incubated for 5 hrs by RT-PCR method; assay type: functional, cell-based
THP-1 [7] = experiment: Induction of nitric oxide production in human THP1 cells infected with Leishmania donovani amastigotes at 0.93 uM incubated for 48 hrs by Griess assay relative to untreated control; assay type: functional
Leishmania donovani [8] = experiment: microbe, parasite or virus in culture; conditions: THP-1, 48 h
Description: Antileishmanial activity against Leishmania donovani amastigotes infected in human THP1 cells at 10 to 210 uM incubated for 48 hrs by Giemsa staining based optical microscopy

[9] = as §1; assay type: functional, THP-1
Leishmania donovani [10] = experiment: Antileishmanial activity against Leishmania donovani amastigotes infected in human THP1 cells assessed as parasite growth inhibition at 100 uM incubated for 48 hrs by Giemsa staining based optical microscopy; assay type: functional; conditions: THP-1, 48 h, read-out: GI

## sodium antimonygluconate
THP-1 [1]
  Activity: inactive
THP-1 [2]
  Ratio CC50/IC50: 10.1

## COc1cc(-c2oc3cc(O)cc(O)c3c(=O)c2O)cc(OC)c1OC
Leishmania donovani [3]
  IC50: > 30 µg/mL

## COc1cc(O)c2c(=O)c(OC)c(-c3cc(O)c(O)c(OC)c3)oc2c1
[4]
  CC50 at 92 h: 124 µM
Leishmania donovani [5]
  IC50: 2.4 µM
  IC90: 28.1 µM
THP-1 [6]
  Activity: Active
THP-1 [7]
  fold change (FC): 8.4
Leishmania donovani [8]
  IC50: 0.93 µM
[9]
  Ratio CC50/IC50: 133.01
Leishmania donovani [10]
  inhibition of growth at 100 µM: 100%
